Reference: patent US20150366827A1, “COMPOSITIONS AND METHODS FOR MIXING AND APPLYING MIXED OXIDANT COMPOSITIONS FOR DAIRY ANIMAL TREATMENT” (GEA Farm Technologies, Inc., priority 2009, published 2015)

How the values were obtained:
[1] = Loss of mixed oxidant activity on exposure to additives (iodometric thiosulfate titration); assay type: physicochemical; parameters: % Loss of mixed oxidant activity at (23° C.) / % Loss of Activity at (23° C.): concentration or dose not given beside the values; settings: for % Loss of mixed oxidant activity after 24 hours at (23° C.) exposure to mixed oxidant: emollients, beginning mixed oxidant 3800-4100 ppm as available chlorine
Description: The activity of a mixed oxidant system is preferably measured with an iodometric titration by the addition of excess iodide and acid and titration of the resulting iodine (in the form of triiodide) with sodium thiosulfate. This method can measure the various oxidants in the mixture, comprising chlorine.
(§1) A teat dip composition is defined as stable when the activity of the mixed oxidant decreases by less than about 25% over a 12 hour to 72 hour period. The Tables 1 through 3, and 5 below show the stability of mixed oxidants when exposed to various additives for 12 hours to 96 hours. […] In each Table 1 through 5, the beginning mixed oxidant titrated at between 3800 ppm to 4100 ppm measured as available chlorine.

[2] = Loss of color of colorants exposed to mixed oxidant, judged on teat; assay type: physicochemical, dairy animal
Description: as §1
Colorants are added to teat dips to provide a visual indicator that a teat dip was applied to a diary animal teat.
Preferably, a stable colorant is added to the teat sanitizer composition, but the colorant must be visible on the teat at the Ready-to-Use concentration. Some colorants are unacceptable because they are stable in their color in solution, but they are not visible on the teat after an exposure to the mixed oxidant for a period of time.

[3] = chelators, 0.1 days exposure to mixed oxidant, 23° C.

For `CCCCCCCCCCCCCCCCCC(=O)OCCCCCCCC` [Octyl stearate], which “% Loss of mixed oxidant activity after 24 hours at (23° C.) exposure to mixed oxidant” value (“% Loss … to mixed oxidant” below) ([1]; 23° C.) is on record?
Its value is 11%.

For `OCC(O)CO` [Glycerin], which “% Loss … to mixed oxidant” value ([1]; 23° C.) is on record?
Its value is 97%.

With `O=C([O-])[C@H](O)[C@@H](O)[C@H](O)[C@H](O)CO.[Na+]` [Sodium Gluconate] as the molecule, how does the “% Loss of mixed oxidant activity at (23° C.)” value [1, 3] read?
Its value is 90%.

Which “Color intensity on teat after 1 day exposure to 4000 ppm mixed oxidant” value (“Color intensity on teat” for short) [2] does the source give for `O=S(=O)([O-])c1ccc(N=Nc2c(O)ccc3cc(S(=O)(=O)[O-])ccc23)cc1.[Na+].[Na+]` [Yellow #6] here?
The value was “Clear”.

With `CN(C)c1ccc2nc3ccc(=[N+](C)C)cc-3sc2c1` [Methylene Blue] as the molecule, how does the “Color intensity on teat” value [2] read?
The value was “Clear”.

For Nonylphenol ethoxylate, which “% Loss of mixed oxidant activity at (23° C.)” value ([1]; surfactants, 2 days exposure to mixed oxidant, 23° C.) is on record?
The value was 55%.

With `CCCCCCCCCCCCc1ccc(S(=O)(=O)O)cc1` [DDBSA, dodecylbenzenesulfonic acid] as the molecule, how does the “% Loss of Activity at (23° C.)” value ([1]; antimicrobials, 2 days exposure to mixed oxidant, 23° C.) read?
The value was 6%.

For `CCN(Cc1cccc(S(=O)(=O)[O-])c1)c1ccc(C(=C2C=CC(=[N+](CC)Cc3cccc(S(=O)(=O)[O-])c3)C=C2)c2ccccc2S(=O)(=O)[O-])cc1.[Na+].[Na+]` [FD&C Blue 1], which “Color intensity on teat” value [2] is on record?
The value was “Clear”.

With `CC(C)CCCCCCCCCCCCCCC(=O)OC(C)C` [Isopropyl Isostearate] as the molecule, how does the “% Loss … to mixed oxidant” value ([1]; 23° C.) read?
Its value is 11%.

With Cocamido propyl betaine as the molecule, how does the “% Loss of mixed oxidant activity at (23° C.)” value ([1]; surfactants, 1 day exposure to mixed oxidant, 23° C.) read?
Its value is 56%.

Which “Color intensity on teat” value [2] does the source give for `COc1cc(S(=O)(=O)[O-])c(C)cc1N=Nc1c(O)ccc2cc(S(=O)(=O)[O-])ccc12.[Na+].[Na+]` [FD&C Red #40] here?
Its value is “Clear”.

For `CC(O)CO` (stereo not drawn) [Propylene glycol], which “% Loss … to mixed oxidant” value ([1]; 23° C.) is on record?
The value was 71%.

And the “% Loss … to mixed oxidant” value ([1]; 23° C., listed as Propylene Glycol)?
Its value is 7%.

With EDTA 100 as the molecule, how does the “% Loss of mixed oxidant activity at (23° C.)” value [1, 3] read?
The value was 94%.

For `CC(C)CCCCCCCCCCCCCCCOC(=O)CCCCC(=O)OCCCCCCCCCCCCCCCC(C)C` [Diisostearyl Adipate], which “% Loss … to mixed oxidant” value ([1]; 23° C.) is on record?
The value was 13%.

With `OC[C@@H](O)[C@@H](O)[C@H](O)[C@@H](O)CO` [Sorbitol] as the molecule, how does the “% Loss … to mixed oxidant” value ([1]; 23° C.) read?
Its value is 78%.

With `O=P(O)(O)OP(=O)(O)OP(=O)(O)O` [Na, sodium Tripolyphosphate] as the molecule, how does the “Stability of chelator with mixed oxidant (in words)” value ([1]; chelators compatible with mixed oxidant) read?
Its value is “stable”.

What about the “% Loss of mixed oxidant activity at (23° C.)” value ([1]; chelators, 2 days exposure to mixed oxidant, 23° C.) of the same molecule?
Its value is 3.5%.

For `O=C([O-])C1=NN(c2ccc(S(=O)(=O)[O-])cc2)C(=O)C1N=Nc1ccc(S(=O)(=O)[O-])cc1.[Na+].[Na+].[Na+]` (stereo not drawn) [Yellow #5], which “Color intensity on teat” value [2] is on record?
The value was “Clear”.

And the “Visibility of the dye once applied to a dairy animal teat” value ([2]; after exposure to mixed oxidant)?
The value was “unacceptable”.

And the “Color in the composition after exposure to the mixed oxidant” value ([2]; in solution, after exposure to mixed oxidant)?
Its value is “still has some color”.
